Molecules are shown by their SMILES.

Test [1] deals with T1, Aurora-A (h) (Homo sapiens, UniProt O14965).
T1 sequence (O14965 1-403): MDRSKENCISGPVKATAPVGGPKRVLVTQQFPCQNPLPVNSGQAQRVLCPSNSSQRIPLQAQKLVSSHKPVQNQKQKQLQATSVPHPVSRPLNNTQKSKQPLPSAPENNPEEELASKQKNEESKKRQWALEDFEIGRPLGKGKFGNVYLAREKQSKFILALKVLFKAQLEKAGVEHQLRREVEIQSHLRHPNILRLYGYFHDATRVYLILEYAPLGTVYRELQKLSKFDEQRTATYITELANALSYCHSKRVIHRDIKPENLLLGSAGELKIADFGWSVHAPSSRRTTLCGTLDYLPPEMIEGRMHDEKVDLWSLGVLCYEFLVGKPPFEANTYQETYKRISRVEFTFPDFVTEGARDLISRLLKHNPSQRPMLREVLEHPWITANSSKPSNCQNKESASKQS
Put plainly: Kinase profiling C3.1 Aurora-A human. In kind it is biochemical. Particulars: test concentration of 10^−6 M. The method, then: (§1) The in vitro inhibition of a panel of kinases was assessed using either the glass-fiber filter technology as described by Davies, S. P. et al., Biochem J. (2000), 351; p. 95-105. In the glass-fiber filter technology the activity of the kinase of interest is measured using an appropriate substrate that is incubated with the aforementioned kinase protein in the presence of (^33P) radiolabeled ATP. (^33P) Phosporylation of the substrate is subsequently measured as radioactivity bound on a glassfiber-filter.
(§2) All kinases are pre-diluted to a 10× working concentration prior to addition into the assay. The composition of the dilution buffer for each kinase is detailed below.
(§3) All substrates are dissolved and diluted to working stocks in de-ionised water, apart from histone H1 that is stored in 10× working stock in 20 mM MOPS pH 7.4.
(§4) In a final reaction volume of 25 μl, Aurora-A (h) (5-10 mU) is incubated with 8 mM MOPS pH 7.0, 0.2 mM EDTA, 200 μM LRRASLG (Kemptide), 10 mM MgAcetate and [γ-^33P-ATP] (specific activity approx. 500 cpm/pmol, concentration as required). The reaction is initiated by the addition of the MgATP mix. After incubation for 40 minutes at room temperature, the reaction is stopped by the addition of 5 μl of a 3% phosphoric acid solution. 10 μl of the reaction is then spotted onto a P30 filtermat and washed three times for 5 minutes in 50 mM phosphoric acid and once in methanol prior to drying and scintillation counting.

Test [2] has as its system Chang cells. Put plainly: GSK-3 cellular assay (C2): 14C-D-glucose incorporation into glycogen. It counts as cell-based. Particulars: increase in D-glucose incorporation into glycogen, test concentration of 10^−6 M. The method, then: Test compounds were tested for their ability to increase the incorporation of ^14C-D-glucose into glycogen in living cells. To do this, Chang cells (360,000 cells/well) were cultured in 0.5 ml of MEM Rega 3 medium supplemented with 10% fetal calf serum, 1% L-glutamine and 2% sodium carbonate. After 3 days, cells were washed with 0.5 ml of phosphate-buffered saline and overlayed with 1 ml of serum- and glucose-free DMEM medium. Then, 2 μl of compound in DMSO and 50 μl substrate (3 mM glucose and 0.5 μCi ^14C-D-glucose were added and the cultures were incubated for 90 min. Cells were then extracted with 0.5 ml of 20% KOH for 60 min at 37° C. and the cell lysates were transferred to 10 ml tubes containing 300 μl of 1 mg/ml glycogen as […]. Following the addition of 2 ml ethanol, total glycogen was precipitated overnight at −20° C. and the precipitates were recovered by centrifugation. Precipitates were then resuspended in 1 ml of water and transferred to scintillation counter vials. and the amount of ^14C-D-glucose incorporation into glycogen was measured by scintillation counting. Scores for the compounds according to the invention, were obtained at a test concentration of 10^−6 M. Score 1=10-30% increase, Score 2=30-60% increase, Score 3=60-80% increase and Score 4=>80% increase in D-glucose incorporation.

The target of test [3] is cSRC (h) (Homo sapiens, UniProt P12931). Put plainly: Kinase profiling C3.9 cSRC human. Particulars: test concentration of 10^−6 M. It counts as biochemical. How it is done:
as §1, §2, §3
In a final reaction volume of 25 μl, cSRC (h) (5-10 mU) is incubated with 8 mM MOPS pH 7.0, 0.2 mM EDTA, 250 μM KVEKIGEGTYGVVYK (Cdc2 peptide), 10 mM MgAcetate and [γ-^33P-ATP] (specific activity approx. 500 cpm/pmol, concentration as required). The reaction is initiated by the addition of the MgATP mix. After incubation for 40 minutes at room temperature, the reaction is stopped by the addition of 5 μl of a 3% phosphoric acid solution.
10 μl of the reaction is then spotted onto a P30 filtermat and washed three times for 5 minutes in 75 mM phosphoric acid and once in methanol prior to drying and scintillation counting.

The target in test [4] is CDK2/cyclinA (h) (Homo sapiens, UniProt P24941). Put plainly: Kinase profiling C3.3 CDK2/cyclinA human. In kind it is biochemical. The conditions noted are these: test concentration of 10^−6 M. The gist of the method: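 Human CDK2/cyclinA (5-10 mU) phosphorylates 0.1 mg/ml histone H1 in 8 mM MOPS pH 7.0, EDTA, 10 mM Mg acetate with [γ-33P]ATP, 40 min at room temperature. After phosphoric acid stop, filter-bound 33P counted by scintillation.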

Test [5] has as its target Yes (h) (Homo sapiens, UniProt P07947). Description: Kinase profiling C3.10 Yes human. The conditions noted are these: test concentration of 10^−6 M. In kind it is biochemical. The method, then: as §1, §2, §3
as §4, with “μl, Yes” for “μl, Aurora-A”, “EDTA, 0.1 mg/ml poly(Glu, Tyr) 4:1,” for “EDTA, 200 μM LRRASLG (Kemptide),”, “a Filtermat A” for “a P30 filtermat”, “in 75” for “in 50”

For test [6], the target named is GSK-3α (Homo sapiens, UniProt P49840). Put plainly: GSK-3 kinase assay (C1), GSK-3α. It counts as biochemical. The conditions noted are these: 1 μM ATP, read-out: C1 Score α. In outline: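 Radiometric SPA at room temperature in 25 mM Tris pH 7.4 with 10 mM MgCl2, 1 mM DTT, 5.7 ng/μl GSK-3β or 0.25 ng/μl GSK-3α, 5 μM biotinylated CREB peptide and 1 μM ATP plus ^33P-ATP. Stopped after 1 h; IC50 from dose-response versus no-compound control, reported as pIC50 score bands.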
Chain of GSK-3α (P49840 whole entry, species assumed): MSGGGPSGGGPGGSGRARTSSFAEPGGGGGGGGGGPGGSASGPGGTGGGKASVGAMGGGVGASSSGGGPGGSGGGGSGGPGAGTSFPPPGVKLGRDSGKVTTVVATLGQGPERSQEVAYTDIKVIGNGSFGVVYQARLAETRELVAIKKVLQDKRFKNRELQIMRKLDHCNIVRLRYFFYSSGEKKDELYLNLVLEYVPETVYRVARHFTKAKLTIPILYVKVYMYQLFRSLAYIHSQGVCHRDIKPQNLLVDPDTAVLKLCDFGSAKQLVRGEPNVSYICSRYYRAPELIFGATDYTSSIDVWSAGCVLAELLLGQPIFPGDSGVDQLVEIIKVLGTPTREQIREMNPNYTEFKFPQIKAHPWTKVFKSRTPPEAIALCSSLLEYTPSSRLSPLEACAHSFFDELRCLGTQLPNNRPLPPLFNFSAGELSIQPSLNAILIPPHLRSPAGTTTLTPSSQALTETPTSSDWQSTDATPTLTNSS

Chain of cSRC (h) (P12931 whole entry): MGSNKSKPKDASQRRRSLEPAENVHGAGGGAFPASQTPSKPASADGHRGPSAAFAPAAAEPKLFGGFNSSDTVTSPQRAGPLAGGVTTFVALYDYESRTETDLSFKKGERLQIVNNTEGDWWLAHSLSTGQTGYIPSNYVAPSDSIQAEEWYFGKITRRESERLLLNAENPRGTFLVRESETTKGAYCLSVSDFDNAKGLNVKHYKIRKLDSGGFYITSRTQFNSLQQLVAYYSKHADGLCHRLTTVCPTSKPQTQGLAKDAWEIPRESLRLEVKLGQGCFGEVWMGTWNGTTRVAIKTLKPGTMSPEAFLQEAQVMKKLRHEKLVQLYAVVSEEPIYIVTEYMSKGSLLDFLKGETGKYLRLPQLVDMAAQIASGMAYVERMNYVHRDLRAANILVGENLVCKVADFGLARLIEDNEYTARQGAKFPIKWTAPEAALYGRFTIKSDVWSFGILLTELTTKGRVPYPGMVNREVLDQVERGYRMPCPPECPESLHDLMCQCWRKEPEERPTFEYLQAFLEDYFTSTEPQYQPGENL
Chain of Yes (h) (P07947 whole entry): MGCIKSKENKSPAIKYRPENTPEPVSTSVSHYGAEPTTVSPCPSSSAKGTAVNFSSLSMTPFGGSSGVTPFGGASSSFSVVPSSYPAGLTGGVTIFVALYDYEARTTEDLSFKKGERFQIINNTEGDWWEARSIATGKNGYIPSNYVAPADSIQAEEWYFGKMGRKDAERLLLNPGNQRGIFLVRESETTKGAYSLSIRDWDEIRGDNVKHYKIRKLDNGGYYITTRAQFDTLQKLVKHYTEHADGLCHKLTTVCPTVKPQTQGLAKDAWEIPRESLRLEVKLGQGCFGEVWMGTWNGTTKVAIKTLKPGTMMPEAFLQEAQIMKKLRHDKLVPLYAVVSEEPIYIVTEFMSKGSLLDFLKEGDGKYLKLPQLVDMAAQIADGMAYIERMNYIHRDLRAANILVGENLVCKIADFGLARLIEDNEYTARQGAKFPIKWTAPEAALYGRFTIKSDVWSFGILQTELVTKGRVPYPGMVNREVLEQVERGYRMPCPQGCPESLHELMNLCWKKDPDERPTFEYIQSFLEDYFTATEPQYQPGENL

Consider `O=C1CNCc2cccc(c2)Nc2ncnc(n2)-c2cncc(c2)CCCN1` [Compound 83], for which the C3.1 score in test [1] is listed as 2 (Score 2 = 30-60% inhibition). In addition, in test [2], the “C2 Score” value is listed as 4 (Score 4=>80% increase in D-glucose incorporation). In addition, the C3.9 score in test [3] is given as 2 (Score 2 = 30-60% inhibition). Besides, in test [4], the C3.3 score is reported as 2 (Score 2 = 30-60% inhibition). The C3.10 score in test [5] is 2 (Score 2 = 30-60% inhibition). The IC50 in test [6] lay in the range of 10 to 100 nM.

Source of the values: US8778919B2, “Cyclic anilino—pyridinotriazines” (Janssen Pharmaceutica NV, priority 2005, dated 2014).
